Measurements reported in patent publication US20160251625A1, “METHOD FOR SCALABLE SKELETAL MUSCLE LINEAGE SPECIFICATION AND CULTIVATION” (THE CURATORS OF THE UNIVERSITY OF MISSOURI, priority 2013, published 2016).

Columns and labels:
O2KM cell line = assay: 5AC effects on MYF5 expression and terminal differentiation of O2KM; assay type: cell-based, porcine
Procedure: Therefore, a epigenetic modulator was used to enhance the expression of myogenic genes in cells otherwise non-permissive to myogenesis and enhance terminal differentiation of lineage committed myoctes to mature myofibers. […] This distinction may explained by the enhanced expression of the myogenic transcription factor MYF5 observed only in the 5AC-exposed O2KM prior to and following 48 hours of DOX withdrawal
(§1) 5AC exposure prior to, during, and following E2-mediated induction of ‘MyoDER’ was introduced to enable terminal-differentiation of O2KM from myocytes into refractive, filamentous myotubes. The murine C2C12 cell line was used as positive control to screen for optimal conditions for terminal differentiation by O2KM. […] 5AC, a small-molecule epigenetic modulator, was determined previously to enable skeletal muscle transcription in cell lines non-permissive to myogenesis. Moreover, 5AC exposure was further determined to enhance terminal differentiation by the C2C12 cell line.
N-2 and B-27 supplements were used exclusively as serum replacements. Cultures were differentiated for up to 6d following under 20% O2 following induction regimens (FIG. 20A). […] Contractile potential of terminally differentiating skeletal muscle myotubes was validated by (1) structural development of well-organized sarcomeres, as shown in FIG. 20G; (2) asynchronous spontaneous contraction, as shown in FIG. 21A; (3) contractile stimulation and synchronization by field stimulation, as shown in FIG. 21B; (4) caffeine-stimulated contraction, as shown in FIG. 21C; and (5) acetylcholine-stimulated contraction, as shown in FIG. 21D.
piPSC modification with an integrated MyoDER expression cassette. […] Arrows and boxes indicate promoter and gene sequences, respectively. […] MyoDER was detected with an antibody raised against a MyoD peptide. […] Endogenous MYOD1 (˜45 kD, expected) was not detected. […] Double Arrow: Partially resolved MYOG isoforms. FIGS. 19A and 19B. Determinants of MYF5 activation: Western blot analyses. […] In the absence of CHIR99021, the 17 kD cleaved caspase isoform was not observed in the KOSR supplemented differentiation milieu, as in contrast to observations in the N-2 and B-27 supplemented differentiation milieu (FIG. 17A, FIG. 19A). […] MYODER-modified piPSC were cultured 3 days in self-renewal or expansion milieu. […] TUBA is detected as an internal protein loading control.

undifferentiated O2KM = assay: 5AC tolerance of undifferentiated O2KM; assay type: cell-based, porcine
Procedure: as §1

murine C2C12 myoblast = assay: terminal differentiation of C2C12 myoblasts, scored by size and extent of myotube formation; assay type: cell-based; details: low-mitogen differentiation cultures (2% horse serum/DMEM)
O2K cell line [1] = assay: cell death / survival of differentiating O2K (phase contrast, cell adhesion, CPP32 cleavage, Annexin V); assay type: cell-based, porcine; details: SRM basal medium without hLIF, DOX, PD032591 and PD173074
Description: (§2) 1. As CHIR99021 repressed cell death, supported differentiation toward paraxial mesoderm by the differentiating O2K cell line and enhanced terminal differentiation by the C2C12 cell line, precedent was established to retain the compound in all culture stages.
TUBA is detected an internal protein loading control.

CTNNB1 = assay: Western blot of CTNNB1 level and phosphorylation in differentiating O2K; assay type: cell-based, porcine; details: primordial differentiation
Description: TUBA detected as an internal protein loading control. […] TUBA detection is shown as an internal protein loading control.

O2K cell line [2] = assay: differentiation marker Western blot (PAX3, POU5F1, KLF4) in O2K; assay type: cell-based, porcine; details: differentiating O2K, CHIR99021 supplemented basal medium
Description: as §2
TUBA detected as an internal protein loading control. FIG. 13A indicates ratios of p-CTNNB1/CTNNB1 bands. FIG. 13B indicates ratios of CTNNB1/TUBA bands. […] TUBA detection is shown as an internal protein loading control.

piPSC-derived myotubes = assay: calcium transient activity (Fluo-4 AM) in piPSC-derived myotubes; assay type: cell-based, porcine; details: d6 myotubes, 10 mM, field of view
Description: To quantify contraction cycles, myotube cultures were stained with Fluo-4 AM calcium dye, washed, and image sequences were captured by confocal microscopy. Dynamic signaling events of an entire field of view (FOV) or single cells were traced and plotted over the imaging course. [s]=seconds.

SMILES: Nc1ncn([C@@H]2O[C@H](CO)[C@@H](O)[C@H]2O)c(=O)n1 [5AC, 5-Aza-Cytidine]
- MYF5 expression after expansion culture (O2KM cell line; MyoDER-modified piPSC, 3 days, in the presence of DOX and CHIR99021): supported detectable MYF5 expression levels
- MYF5 expression (O2KM cell line; O2KM derived myocytes cultured in the presence of 5AC): MYF5 expression was enhanced
- myotube morphology in terminal differentiation (O2KM cell line; O2KM exposed to 5AC during expansion and induction regimens): formed refractive, anisotropic myotubes
- activation of endogenous MYF5 expression, dependence on CHIR99021 (O2KM cell line; unmodified piPSC, 2d differentiation milieu with KOSR, no 3i, DOX, hLIF, E2): dependent upon simultaneous CHIR99021 exposure
- highest dose tolerated (undifferentiated O2KM): 250 nM

SMILES: Cc1c[nH]c(-c2cnc(NCCNc3ccc(C#N)cn3)nc2-c2ccc(Cl)cc2Cl)n1 [CHIR99021]
- terminal differentiation of C2C12 into skeletal myotubes (murine C2C12 myoblast): enhanced terminal differentiation into skeletal myotubes
- cell survival during differentiation (O2K cell line [1]): supported both cell survival during differentiation
- CTNNB1 stabilization and phosphorylation status (CTNNB1): stabilizes and modulates the phosphorylation status of the GSK3β substrate, CTNNB1
- paraxial mesoderm lineage specification (PAX3 expression, loss of POU5F1 and KLF4) (O2K cell line [2]): supported pre-myogenic paraxial mesoderm lineage specification of differentiating O2K

SMILES: Cn1c(=O)c2c(ncn2C)n(C)c1=O [caffeine]
- calcium transient activation (piPSC-derived myotubes): calcium transient activation
